Laboratory results published in publication PMC11025159 (Journal of Translational Medicine, 2024).
“And” between values parts separate entries of the source, which are not always exact repeats. Identical values can stand only once. Counter-ions that a name gives are not always drawn.

Tests used:
[1] = Body weight of athymic nude mice during topical treatment; type: in vivo, athymic nude mice (NU/J Foxn1nu); details: individual mice
Procedure: . The groups are as follows: Group 1-Control (untreated), Group 2-Vehicle control, Group 3-tofacitinib citrate (0.8 mg/Kg), Group 4-tofacitinib citrate (0.08 mg/Kg), Group 5-MJ04 (0.08 mg/Kg), Group 6-MJ04 (0.04 mg/Kg), Group 7-MJ04 (0.016 mg/Kg), Group 8-baricitinib (0.1 mg/Kg), Group 9-baricitinib (0.04 mg/Kg), and Group 10-baricitinib (0.02 mg/Kg). At the end of the experiment, skin samples were collected and preserved in 10% neutral buffered formalin for tissue sectioning and staining using haematoxylin and eosin (H&E). […]

[2] = system: athymic nude mice (NU/J Foxn1nu); assay: Hair growth in athymic nude mice (topical, 28 days); type: in vivo; details: for H&E skin histopathology finding / hair follicle grade: day 28
Procedure: The groups are as follows: Group 1-Control (untreated), Group 2-Vehicle control, Group 3-tofacitinib citrate (0.8 mg/Kg), Group 4-tofacitinib citrate (0.08 mg/Kg), Group 5-MJ04 (0.08 mg/Kg), Group 6-MJ04 (0.04 mg/Kg), Group 7-MJ04 (0.016 mg/Kg), Group 8-baricitinib (0.1 mg/Kg), Group 9-baricitinib (0.04 mg/Kg), and Group 10-baricitinib (0.02 mg/Kg). At the end of the experiment, skin samples were collected and preserved in 10% neutral buffered formalin for tissue sectioning and staining using haematoxylin and eosin (H&E). The histopathological examinations were performed under the 10× and 40× objectives of light microscope (Magnus, Mx21i), and hair follicles were graded on a scale of 0 to 4 (++++).
The skin samples collected from athymic nude mice (NU/J Foxn1^nu) were preserved in 10% neutral buffered formalin and processed for tissue sectioning. The skin sections (10 µm) of nude mice were stained using haematoxylin and eosin (H&E) and viewed under 10× and 40× objectives of the light microscope (Magnus, Mx21i). The histopathological examination of the samples was performed, and the hair follicles in the skin sections were graded on a scale of 0 to 4 (++++).

[3] = Body weight, biochemical and haematological parameters in DHT-induced AGA mice (0.5% testosterone then topical treatment); type: in vivo, C57BL/6J mice; details: for LYMPH: unit assumed
Procedure: The experiments were performed on C57BL/6 J and Athymic nude mice (NU/J Foxn1^nu) of 6–7 weeks of age obtained from Animal House Facility, CSIR-Indian Institute of Integrative Medicine (IIIM), Jammu, India. […] The animals were provided with ad libitum feed (standard pellet diet) and autoclaved RO water throughout the study. The body weight of mice was measured after seven days before treatment.
(§1) C57BL/6 J mice (male) were obtained from CSIR-IIIM Animal House at 7 weeks of age. We used a DHT-induced AGA mice model for this study. […] At the end of the experiment, skin samples were collected and preserved in 10% neutral buffered formalin for tissue sectioning and staining using haematoxylin and eosin (H&E). The histopathological examinations were performed under the 10× and 40× objectives of light microscope (Magnus, Mx21i).
Every two weeks during the experimental period, mice were anesthetized, and the blood samples were collected into tubes containing heparin sodium to detect the total and differential white blood cells, haemoglobin, red blood cell, platelet count, mean corpuscular haemoglobin, mean corpuscular volume, red blood cell volume, mean platelet volume, and analyzed using an automated haematology analyzer (Model: XT1800i; Make: Sysmex).
Every two weeks during the experimental period, mice and rats were anesthetized, and blood samples were collected into non-heparinized tubes and then centrifuged at 1000 rpm at 4 °C for 10 min to obtain the serum. The biochemical parameters, including total protein, aspartate aminotransferase, alanine aminotransferase, total protein, albumin, total bilirubin, direct bilirubin, glucose, total cholesterol, triglyceride, low-density lipoprotein, high-density lipoprotein, creatinine, and uric acid, were measured using an automatic biochemical analyzer (Model: EM360; Make: Erba Mannheim).

[4] = system: DHT-induced AGA mice; assay: Hair regrowth in DHT-induced AGA mice model (topical, 28 days); type: in vivo, C57BL/6J mice
Procedure: as §1
Dorsal skin samples from C57BL/6J mice were shaved and collected for histological and molecular analyses on Days 7, 14, 21, and 28. The full-thickness skin tissue was fixed in a 10% neutral buffered formalin solution (Sigma) overnight and subsequently dehydrated for embedding in paraffin. Haematoxylin and eosin (H&E) staining was performed on the skin tissue, and digital photomicrographs were taken from the representative areas using light microscope (Magnus, Mx21i).
The quantification of anagen initiation was assessed by observing changes in the dorsal skin colour of C57BL/6 mice, a phenomenon closely linked to the onset of the anagen phase. Anagen quantification was done by employing threshold analysis on dorsal skin colouration using ImageJ. The darkening of the skin, attributed to melanogenesis, strongly correlates with the progression of anagen. This analysis is visually depicted as a heatmap using GraphPad Prism 9.5 Software.

Which results are given for `C[C@@H]1CCN(C(=O)CC#N)C[C@@H]1N(C)c1ncnc2[nH]ccc12` [Tofacitinib, tofacitinib citrate, reference compound]?
Weight of nude mice (NU/J Foxn1nu) ([1]; 0.8 mg/kg (first group), DAY 1): 18.1 and 18.4 and 18.7 and 19.3 and 18.2; Weight of nude mice (NU/J Foxn1nu) ([1]; 0.8 mg/kg (first group), DAY 7): 20.1 and 20.5 (2×) and 19.3 and 19.8; Weight of nude mice (NU/J Foxn1nu) ([1]; 0.8 mg/kg (first group), DAY 14): 21.8 and 22.3 and 22.4 and 21.1 and 21.4; Weight of nude mice (NU/J Foxn1nu) ([1]; 0.8 mg/kg (first group), DAY 21): 23.7 and 23.9 and 24.1 and 23.1 and 23.3; Weight of nude mice (NU/J Foxn1nu) ([1]; 0.8 mg/kg (first group), DAY 28): 24.6 and 25.3 and 25.4 and 26.1 and 24.5; Weight of nude mice (NU/J Foxn1nu) ([1]; 0.8 mg/kg (second group so printed), DAY 1): 18.4 and 18.5 (2×) and 18.9 and 19.3; Weight of nude mice (NU/J Foxn1nu) ([1]; 0.8 mg/kg (second group so printed), DAY 7): 19.3 and 19.5 (2×) and 20.6 and 20.7; Weight of nude mice (NU/J Foxn1nu) ([1]; 0.8 mg/kg (second group so printed), DAY 14): 21.1 and 21.4 and 21.3 and 21.8 and 22.1; Weight of nude mice (NU/J Foxn1nu) ([1]; 0.8 mg/kg (second group so printed), DAY 21): 22.6 and 22.9 and 23.4 (2×) and 23.8; Weight of nude mice (NU/J Foxn1nu) ([1]; 0.8 mg/kg (second group so printed), DAY 28): 24.8 and 25.1 and 25.3 and 25.4 and 26.1; H&E skin histopathology finding ([2]; 0.08 mg/kg): Mild epidermal thickening with the increased number of hair follicles; hair follicle grade ([2]; 0.08 mg/kg): ++++ (graded on a scale ranging from 0 to 4 (++++)); H&E skin histopathology finding ([2]; 0.8 mg/kg): Mild epidermal thickening with the increased number of hair follicles; hair follicle grade ([2]; 0.8 mg/kg): ++++ (graded on a scale ranging from 0 to 4 (++++)); early onset of hair ([2]; topical): 12 days; ALP ([3]; Day 21, 0.08 mg/Kg): 198 U/L; ALT/SGPT ([3]; Day 21, 0.08 mg/Kg): 82 U/L; AST/SGOT ([3]; Day 21, 0.08 mg/Kg): 80 U/L; Cholesterol ([3]; Day 21, 0.08 mg/Kg): 216 mg/dL; Creatine ([3]; Day 21, 0.08 mg/Kg): 0.49 mg/dL; HCT ([3]; Day 21, 0.08 mg/Kg): 45%; HDL ([3]; Day 21, 0.08 mg/Kg): 110 mg/dL; LDL ([3]; Day 21, 0.08 mg/Kg): 134 mg/dL; MCHC ([3]; Day 21, 0.08 mg/Kg): 28 g/dL; MCV ([3]; Day 21, 0.08 mg/Kg): 51 fL; NEUT ([3]; Day 21, 0.08 mg/Kg): 20.2%; PLT ([3]; Day 21, 0.08 mg/Kg): 587 103/μl; RBC ([3]; Day 21, 0.08 mg/Kg): 9.2 1012/l; Total protein ([3]; Day 21, 0.08 mg/Kg): 5.0 g/dL; Triglyceride ([3]; Day 21, 0.08 mg/Kg): 141 mg/dL; Urea ([3]; Day 21, 0.08 mg/Kg): 49 mg/dL; WBC ([3]; Day 21, 0.08 mg/Kg): 3.0 103/μl; LYMPH ([3]; Day 21, 0.08 mg/Kg): 78.8%; ALP ([3]; Day 21, 0.8 mg/Kg): 132 U/L; ALT/SGPT ([3]; Day 21, 0.8 mg/Kg): 56 U/L; AST/SGOT ([3]; Day 21, 0.8 mg/Kg): 111 U/L; Cholesterol ([3]; Day 21, 0.8 mg/Kg): 211 mg/dL; Creatine ([3]; Day 21, 0.8 mg/Kg): 0.63 mg/dL; HCT ([3]; Day 21, 0.8 mg/Kg): 42%; HDL ([3]; Day 21, 0.8 mg/Kg): 116 mg/dL; LDL ([3]; Day 21, 0.8 mg/Kg): 126 mg/dL; MCHC ([3]; Day 21, 0.8 mg/Kg): 29 g/dL; MCV ([3]; Day 21, 0.8 mg/Kg): 52 fL; NEUT ([3]; Day 21, 0.8 mg/Kg): 21.5%; PLT ([3]; Day 21, 0.8 mg/Kg): 917 103/μl; RBC ([3]; Day 21, 0.8 mg/Kg): 8.1 1012/l; Total protein ([3]; Day 21, 0.8 mg/Kg): 5.2 g/dL; Triglyceride ([3]; Day 21, 0.8 mg/Kg): 118 mg/dL; Urea ([3]; Day 21, 0.8 mg/Kg): 71 mg/dL; WBC ([3]; Day 21, 0.8 mg/Kg): 1.7 103/μl; LYMPH ([3]; Day 21, 0.8 mg/Kg): 77.9%; ALP ([3]; Day 28, 0.08 mg/Kg): 199 U/L; ALT/SGPT ([3]; Day 28, 0.08 mg/Kg): 177 U/L; AST/SGOT ([3]; Day 28, 0.08 mg/Kg): 136 U/L; Cholesterol ([3]; Day 28, 0.08 mg/Kg): 238 mg/dL; Creatine ([3]; Day 28, 0.08 mg/Kg): 0.13 mg/dL; HCT ([3]; Day 28, 0.08 mg/Kg): 47.0%; HDL ([3]; Day 28, 0.08 mg/Kg): 133 mg/dL; HGB ([3]; Day 28, 0.08 mg/Kg): 14 g/dL; LDL ([3]; Day 28, 0.08 mg/Kg): 111 mg/dL; MCHC ([3]; Day 28, 0.08 mg/Kg): 29.0 g/dL; MCV ([3]; Day 28, 0.08 mg/Kg): 58.0 fL; PLT ([3]; Day 28, 0.08 mg/Kg): 1475 103/μl; RBC ([3]; Day 28, 0.08 mg/Kg): 8.1 106/μl; Total protein ([3]; Day 28, 0.08 mg/Kg): 6.5 g/dL; Triglyceride ([3]; Day 28, 0.08 mg/Kg): 135 mg/dL; Urea ([3]; Day 28, 0.08 mg/Kg): 62 mg/dL; WBC ([3]; Day 28, 0.08 mg/Kg): 6.7 103/μl; ALP ([3]; Day 28, 0.8 mg/Kg): 252 U/L; ALT/SGPT ([3]; Day 28, 0.8 mg/Kg): 134 U/L; AST/SGOT ([3]; Day 28, 0.8 mg/Kg): 125 U/L; Cholesterol ([3]; Day 28, 0.8 mg/Kg): 240 mg/dL; Creatine ([3]; Day 28, 0.8 mg/Kg): 0.12 mg/dL; HCT ([3]; Day 28, 0.8 mg/Kg): 31.0%; HDL ([3]; Day 28, 0.8 mg/Kg): 128 mg/dL; HGB ([3]; Day 28, 0.8 mg/Kg): 11 g/dL; LDL ([3]; Day 28, 0.8 mg/Kg): 113 mg/dL; MCHC ([3]; Day 28, 0.8 mg/Kg): 34.0 g/dL; MCV ([3]; Day 28, 0.8 mg/Kg): 60.0 fL; PLT ([3]; Day 28, 0.8 mg/Kg): 1053 103/μl; RBC ([3]; Day 28, 0.8 mg/Kg): 5.1 106/μl; Total protein ([3]; Day 28, 0.8 mg/Kg): 6.1 g/dL; Triglyceride ([3]; Day 28, 0.8 mg/Kg): 132 mg/dL; Urea ([3]; Day 28, 0.8 mg/Kg): 50 mg/dL; WBC ([3]; Day 28, 0.8 mg/Kg): 5.6 103/μl; H&E skin histopathology finding ([4]; 0.08mg/kg, Days 7, 14, 21, 28): Minimal epidermal thinning with few hair follicles on Days 7 and 14 and increased hair follicles on Days 21 and 28; hair follicle phase (histopathology) ([4]; skin samples days 7, 14, 21, 28): at least in the anagen IIIc-IV phase; entry into the anagen phase ([4]; topical once a day in presence of testosterone): rapid entry into the anagen phase within seven days of treatment; mice displaying intense skin darkening followed by hair growth ([4]; within 10 days of treatment): around 90%
